{"source": "paper PMC3360681", "about": "“Comparison of Recombinant Human Haptocorrin Expressed in Human Embryonic Kidney Cells and Native Haptocorrin” (PLoS ONE, 2012)", "molecules": {"B1": {"name": "rhHC: recombinant human haptocorrin expressed in HEK293 cells, tag removed, four excessive C-terminal residues (…LVPR) (protein)", "chain": "EICEVSEENYIRLKPLLNTMIQSNYNRGTSAVNVVLSLKLVGIQIQTLMQKMIQQIKYNVKSRLSDVSSGELALIILALGVCRNAEENLIYDYHLIDKLENKFQAEIENMEAHNGTPLTNYYQLSLDVLALCLFNGNYSTAEVVNHFTPENKNYYFGSQFSVDTGAMAVLALTCVKKSLINGQIKADEGSLKNISIYTKSLVEKILSEKKENGLIGNTFSTGEAMQALFVSSDYYNENDWNCQQTLNTVLTEISQGAFSNPNAAAQVLPALMGKTFLDINKDSSCVSASGNFNISADEPITVTPPDSQSYISVNYSVRINETYFTNVTVLNGSVFLSVMEKAQKMNDTIFGFTMEERSWGPYITCIQGLCANNNDRTYWELLSGGEPLSQGAGSYVVRNGENLEVRWSKYLVPR", "modifications": "125I label (Iodogen method); glycosylated, highly sialylated; left off: Myc, C-terminal, cleaved | His6, C-terminal, cleaved"}, "B2": {"name": "native HC: native human haptocorrin purified from plasma of a patient with hepatocellular carcinoma (protein)", "chain": "EICEVSEENYIRLKPLLNTMIQSNYNRGTSAVNVVLSLKLVGIQIQTLMQKMIQQIKYNVKSRLSDVSSGELALIILALGVCRNAEENLIYDYHLIDKLENKFQAEIENMEAHNGTPLTNYYQLSLDVLALCLFNGNYSTAEVVNHFTPENKNYYFGSQFSVDTGAMAVLALTCVKKSLINGQIKADEGSLKNISIYTKSLVEKILSEKKENGLIGNTFSTGEAMQALFVSSDYYNENDWNCQQTLNTVLTEISQGAFSNPNAAAQVLPALMGKTFLDINKDSSCVSASGNFNISADEPITVTPPDSQSYISVNYSVRINETYFTNVTVLNGSVFLSVMEKAQKMNDTIFGFTMEERSWGPYITCIQGLCANNNDRTYWELLSGGEPLSQGAGSYVVRNGENLEVRWSKY", "modifications": "125I label (Iodogen method); glycosylated", "notes": "native human haptocorrin purified from plasma of a patient with hepatocellular carcinoma"}}, "key": {"[1]": {"tested_on": "native HC (native human haptocorrin)", "set-up": "method as in PMID 17487979", "conditions": "20°C, cited from earlier work; for k−s dissociation rate constant: pH 7.5, measured over a period of 100 h; for k+s binding rate constant: pH 7.5"}, "[2]": {"target": "T1, rhHC (recombinant human haptocorrin) (Homo sapiens, UniProt P20061)", "T1 construct": "Myc-His-tag (Myc + 6xHis, from pcDNA4/myc-His A) (C, cleaved yes); made in house", "T1 sequence (P20061 24-433)": "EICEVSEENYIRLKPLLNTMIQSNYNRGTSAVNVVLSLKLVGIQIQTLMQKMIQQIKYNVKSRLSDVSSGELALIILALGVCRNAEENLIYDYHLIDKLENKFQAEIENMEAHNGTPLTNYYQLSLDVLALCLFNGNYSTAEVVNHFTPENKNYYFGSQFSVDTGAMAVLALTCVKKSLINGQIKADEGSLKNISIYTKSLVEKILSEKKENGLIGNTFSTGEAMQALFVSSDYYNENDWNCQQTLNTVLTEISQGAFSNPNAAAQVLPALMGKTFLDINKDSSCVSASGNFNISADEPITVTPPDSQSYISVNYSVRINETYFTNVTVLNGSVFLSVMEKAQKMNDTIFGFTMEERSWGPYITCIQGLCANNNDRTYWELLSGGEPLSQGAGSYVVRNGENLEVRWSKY", "assay": "Binding and dissociation kinetics with fluorescent Cbl-conjugate CBC (stopped-flow competition and chase experiments)", "conditions": "pH 7.5", "procedure": "A more detailed examination of the binding kinetics was performed in a competitive assay, where the fluorescent ligand CBC [32] alone or in the mixture with a test ligand (Cbl or Cbi) reacted with rhHC over time. Attachment of CBC to Cbl-binding proteins causes increase in the quantum yield of the fluorophore, which facilitates monitoring of the protein - CBC interactions, [33]. Presence of a non-fluorescent ligand X decreases the signal, because the binding goes along two competing routes HC•CBC ← HC → HC·X (reactions behave as irreversible processes within 0.2 s). The binding and dissociation rate constants k +s and k−s, as well as the equilibrium dissociation constant KD were calculated for all ligands by computer fitting as explained elsewhere and the results are listed in Table 2. Compared to previously reported values for native HC, all current binding rate constants (k +s) were 2–3 fold lower. This difference could not be explained by possible concentration error (±10%, examined by simulations).\nThe dissociation kinetics was examined in chase experiments which obeyed (within the examined time scale) one of the below schemes: HC·CBC → HC → HC·X or HC·X → HC → HC·CBC (first step was rate limiting). The dissociation kinetics of the ligands CBC, Cbl and Cbi was measured after formation of the corresponding complexes with rhHC, followed by addition of external CBC (or Cbl in the case of CBC itself) (Figure 5B). The dissociation rate constants were then calculated from linear slopes (Table 2). […] It should be understood, that evaluation of rate constants below 3 · 10^−6 s^−1 within the examined time scale cannot be precise, and that the records were used for comparison of different ligands rather than for precise quantification of k −s.\n[…] The binding kinetics was monitored by means of stopped flow method (DX.17 MV stopped-flow spectro-fluorometer, Applied Biophysics, UK) using the fluorescent response from a Cbl-conjugate CBC [32], [33], excitation 525 nm, emission >550 nm, slit 1.5 mm, voltage 390, bandpass of 18.6 nm, light path of 1 cm. […] The relevant rate constants of association were calculated by computer fitting, as described elsewhere, [33].\nThe dissociation reactions were monitored on fluorometer Varian Eclipse (Varian, Australia) using the fluorescent response of CBC, excitation 525 nm (slit 5 nm), emission 550 nm (slit 5 nm), photomultiplier 600 V. In one setup the pre-formed rhHC·CBC complex (1 µM, 2 min) was mixed with free Cbl (1 µM), and decrease in fluorescence was registered due to rhHC·CBC ↔ Cbl exchange. Dissociation of the non-fluorescent ligands (Cbl or Cbi) was measured in similar chase experiments. […] The endogenous ligand dissociated from the protein (rate limiting step), whereupon CBC immediately bound to rhHC and increased fluorescence."}, "IF (intrinsic factor)": {"target": "IF (intrinsic factor) (Homo sapiens, UniProt P27352)", "sequence (P27352 19-417, species assumed)": "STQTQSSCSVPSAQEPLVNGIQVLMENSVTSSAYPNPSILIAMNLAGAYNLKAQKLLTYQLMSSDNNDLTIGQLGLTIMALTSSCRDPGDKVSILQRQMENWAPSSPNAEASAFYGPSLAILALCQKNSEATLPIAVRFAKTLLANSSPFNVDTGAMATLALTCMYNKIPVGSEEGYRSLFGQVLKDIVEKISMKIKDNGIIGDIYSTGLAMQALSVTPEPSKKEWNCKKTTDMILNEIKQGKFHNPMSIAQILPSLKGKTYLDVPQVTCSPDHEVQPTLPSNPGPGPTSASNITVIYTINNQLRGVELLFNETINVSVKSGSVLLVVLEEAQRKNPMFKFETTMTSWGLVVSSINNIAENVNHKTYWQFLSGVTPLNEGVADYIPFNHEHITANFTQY", "assay": "Concurrent binding kinetics test with CBC and Cbl", "conditions": "data not shown"}, "TC (transcobalamin)": {"target": "T2, TC (transcobalamin) (Homo sapiens, UniProt P20062)", "T2 sequence (P20062 19-427)": "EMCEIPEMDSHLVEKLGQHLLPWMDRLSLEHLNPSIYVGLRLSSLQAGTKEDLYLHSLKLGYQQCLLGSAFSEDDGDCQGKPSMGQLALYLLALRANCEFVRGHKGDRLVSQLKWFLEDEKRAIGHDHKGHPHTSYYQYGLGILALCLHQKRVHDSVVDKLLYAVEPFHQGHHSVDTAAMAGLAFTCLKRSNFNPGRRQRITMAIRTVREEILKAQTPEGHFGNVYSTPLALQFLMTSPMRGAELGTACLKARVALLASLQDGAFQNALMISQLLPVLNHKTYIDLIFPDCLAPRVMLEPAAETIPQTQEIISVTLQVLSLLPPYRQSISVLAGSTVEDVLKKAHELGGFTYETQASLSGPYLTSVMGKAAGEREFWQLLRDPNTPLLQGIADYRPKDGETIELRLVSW", "assay": "Concurrent binding kinetics test with CBC and Cbl", "conditions": "data not shown"}, "[3]": {"tested_on": "HepG2 cells expressing the asialoglycoprotein receptor", "assay": "Internalisation of 125I-labelled proteins into HepG2 cells", "format": "cell-based", "conditions": "125I-labelled protein", "from_the_text": "Depending on the source of expression, different isoforms of HC exist in human blood and extracellular fluids. […] We tested whether ^125I-labelled rhHC would be readily taken up by HepG2 cells expressing the asialoglycoprotein receptor involved in HC clearance. […] Only after removal of terminal sialic acid by neuraminidase, rhHC and native HC were internalised. Removal of the terminal sialic acid residues was qualitatively determined by SDS/PAGE (Figure 6A).\nThe proteins were labelled with ^125I using the Iodogen method (Pierce). Labelled protein was purified on a PD10 column (GE healthcare, Glattbrugg, Switzerland). HEPG2 cells were incubated in twelve-well plates in triplicates with about 1 µg of labelled protein for 1 h at 4°C. The plates were then incubated for 0, 1.5, 3, 6 h at 37°C for internalisation. After these times, the cells were washed twice with PBS/0.1% bovine serum albumin and then incubated for 5 min with ice-cold acid wash buffer (50 mM Glycine-HCl, 100 mM NaCl, pH 2.8) to remove the cell-surface bound radioligand. Subsequently, cells were solubilised by incubation with 1 N NaOH for 5 min. at 37°C. At each time point the radioactivity in the cell medium (released), the acid wash (cell-surface bound) and the solubilised cells (internalised) were determined with a NaI-γ-counter (Cobra II Packard, Canberra Packard GmbH, Frankfurt, Germany)."}, "[4]": {"assay": "Active protein fraction (AP) from absorbance ratio A280/A356 after saturation with aquo-Cbl", "format": "binding", "from_the_text": "The spectral features of the complex rhHC•aquo-Cbl were explored further when rhHC was saturated with aquo-Cbl added in steps at concentrations below the total binding capacity of the protein (Figure 3B). This allowed calculation of the molar absorbance coefficients of aquo-Cbl when bound to rhHC (Table 1). These parameters helped to evaluate the active protein fraction (AP) as previously shown for IF [27]. For rhHC the value of AP was found from the ratio of R = A280/A356 according to the equation below and the values of absorbance coefficients from Table 1. [drawing 1]\nPrior to AP measurements, rhHC was saturated with an excess of aquo-Cbl, free aquo-Cbl was bound to the specific tetrazole adsorbent, whereupon the spectrum of rhHC·Cbl was recorded and compared to the control sample (buffer + aquo-Cbl + adsorbent). After subtraction of the control spectrum, the absorbance ratio and AP were calculated.\nrhHC (10 µM) was saturated with an excess of CNCbl (20 µM) and subjected to dialysis against a 50-fold volume excess of 5 M GdnHCl (30°C, 180 rpm). The solution was changed at days 2 and 3. Incubation was stopped after day 4, whereupon rhHC was renatured by dialysis against 0.2 M Na-phosphate buffer pH 7.5, see also ref. [31]."}, "[5]": {"conditions": "rhHC preparation with active protein fraction 0.95"}, "[6]": {"conditions": "after removal of terminal sialic acid by neuraminidase"}, "[7]": {"conditions": "without neuraminidase treatment, time span of 6 h"}}}
{"molecule": "CC1=C2[N-][C@H]([C@H](CC(N)=O)[C@@]2(C)CCC(=O)NC[C@@H](C)O)[C@]2(C)N=C(C(C)=C3N=C(C=C4N=C1[C@@H](CCC(N)=O)C4(C)C)[C@@H](CCC(N)=O)[C@]3(C)CC(N)=O)[C@@H](CCC(N)=O)[C@]2(C)CC(N)=O.[Co+2]", "note": "[Cbi, cobinamide]", "values": [{"measurement": "k−s dissociation rate constant", "setting": "[1]", "result": "≈5 · 10^−7 s^−1"}, {"measurement": "k+s binding rate constant", "setting": "[1]", "result": "7.3e+07", "unit": "M⁻¹ s⁻¹"}, {"measurement": "k+s binding rate constant", "setting": "[2]; [5]", "result": "21 10^6 M^−1s^−1"}, {"measurement": "k+s binding rate constant", "setting": "[2]; rhHC preparation with active protein fraction 0.99", "result": "33 10^6 M^−1s^−1"}]}
{"molecule": "C/C1=C2/[N-][C@H]([C@H](CC(N)=O)[C@@]2(C)CCC(=O)NC[C@@H](C)OP(=O)([O-])O[C@H]2[C@@H](O)[C@@H](n3cnc4cc(C)c(C)cc43)O[C@@H]2CO)[C@]2(C)N=C(/C(C)=C3N=C(/C=C4N=C1[C@@H](CCC(N)=O)C\\4(C)C)[C@@H](CCC(N)=O)[C@]\\3(C)CC(N)=O)[C@@H](CCC(N)=O)[C@]2(C)CC(N)=O.[Co]", "note": "[Cbl, cobalamin]", "values": [{"measurement": "k−s dissociation rate constant", "setting": "[1]", "result": "≈5 · 10^−7 s^−1"}, {"measurement": "k+s binding rate constant", "setting": "[1]", "result": "9e+07", "unit": "M⁻¹ s⁻¹"}, {"measurement": "k+s binding rate constant", "setting": "IF (intrinsic factor)", "result": "60–70 · 10^6 M^−1 s^−1"}, {"measurement": "k+s binding rate constant", "setting": "TC (transcobalamin)", "result": "60–70 · 10^6 M^−1 s^−1"}, {"measurement": "k+s binding rate constant", "setting": "[2]; [5]", "result": "X/19/X· 10^6 10^6 M^−1s^−1"}, {"measurement": "k−s dissociation rate constant", "setting": "[2]; [5]", "result": "X/≤3/X· 10^−6 10^−6 s^−1"}]}
{"molecule": "B1", "values": [{"measurement": "Internalisation into HepG2 cells", "setting": "[3]; [6]", "result": "internalised"}, {"measurement": "Internalisation into HepG2 cells", "setting": "[3]; [7]", "result": "not internalised"}, {"measurement": "AP active protein fraction after renaturing", "setting": "[4]; apo-rhHC after Cbl saturation, GdnHCl dialysis and renaturing, preparation with AP = 0.95 before treatment", "result": 0.95}, {"measurement": "Cbl binding capacity", "setting": "[4]; rhHC", "result": "95–99%"}]}
{"molecule": "B2", "values": [{"measurement": "Internalisation into HepG2 cells", "setting": "[3]; [6]", "result": "internalised"}, {"measurement": "Internalisation into HepG2 cells", "setting": "[3]; [7]", "result": "not internalised"}]}
